{"source": "patent US9029410B2", "about": "“Pharmaceutical compositions for the treatment of movement disorders” (Sarah Herzog Memorial Hospital Ezrath Nashim Association, priority 2003, dated 2015)", "key": {"[1]": {"system": "neuroleptic sensitized monkeys", "settings": "cited from earlier work"}, "Sprague-Dewley rats": {"system": "Sprague-Dewley rats", "test": "Effects of chronic haloperidol treatment on motor activity", "assay_type": "in vivo, rat", "protocol": "Rats were weighed biweekly throughout the study. Room temperature was maintained at 22±2° C."}, "MPTP-treated monkeys [2]": {"system": "MPTP-treated monkeys", "settings": "low dose (320 or 1000 mg/kg as printed); cited from earlier work"}, "schizophrenia patients [3]": {"system": "schizophrenia patients", "test": "SAS, crossover trials of D-cycloserine (pooled)", "assay_type": "in vivo, human", "protocol": "(§1) Patients fulfilled criteria for treatment resistance used in previous trials of glycine and had been receiving stable doses of olanzapine or risperidone for at least 3 months before study entry. Medication doses remained fixed throughout the study.\n(§2) Methods for this study are the same as in example 1, except that D-cycloserine (50 mg/d) was used for treatment. As previously, outcome was assessed using the PANSS, SAS and AIMS. In addition, the Schedule for Assessment of Negative Symptoms (SANS) was used to provide further assessment of negative symptoms. Data are pooled from two previously published studies (Heresco-Levy et al., 1998, 2002). Because analyses were confirmatory, one-tailed statistics were used throughout."}, "schizophrenia patients [4]": {"system": "schizophrenia patients", "test": "PANSS, crossover trials of D-cycloserine (pooled)", "assay_type": "in vivo, human", "settings": "mean ± sd", "protocol": "as §1, §2"}, "schizophrenia patients [5]": {"system": "schizophrenia patients", "test": "AIMS, crossover trials of D-cycloserine (pooled)", "assay_type": "in vivo, human", "protocol": "as §1, §2"}, "MPTP-treated monkeys [6]": {"system": "MPTP-treated monkeys", "settings": "cited from earlier work"}, "patients": {"system": "patients", "settings": "Tsai and Coyle '875; low baseline levels; cited from earlier work"}, "[7]": {"settings": "D-cycloserine 50 mg/d, week 6, mean ± sd, n=26"}, "[8]": {"settings": "D-cycloserine 50 mg/d, week 6 minus week 0, mean ± sd"}, "[9]": {"settings": "D-cycloserine phase, week 0, mean ± sd, n=26"}, "[10]": {"settings": "D-cycloserine 50 mg/d, week 6, n=26"}, "[11]": {"settings": "D-cycloserine 50 mg/d, week 6 minus week 0"}, "[12]": {"settings": "D-cycloserine phase, week 0, n=26"}}}
{"smiles": "CNC1(c2ccccc2Cl)CCCCC1=O", "note": "(centres unmarked) [ketamine]", "values": [{"measurement": "Motor effects of administration", "setting": "[1]", "result": "induces bradykinesia, dystonia and salivation"}]}
{"smiles": "CCCCCCCCCC(=O)OC1(c2ccc(Cl)cc2)CCN(CCCC(=O)c2ccc(F)cc2)CC1", "note": "[haloperidol, haloperidol decanoate]", "values": [{"measurement": "Number of VCM episodes relative to rats that had received placebo", "setting": "Sprague-Dewley rats; haloperidol decanoate i.m. every four weeks, 24 weeks, p<0.001", "result": "approximately 4 fold"}, {"measurement": "Mean time spent in immobility", "setting": "Sprague-Dewley rats; haloperidol for 24 weeks, 5 minute observation interval, placebo 53.0±12.7", "result": "103.2 ± 7.8", "unit": "s"}, {"measurement": "Number of rearing episodes vs placebo", "setting": "Sprague-Dewley rats; haloperidol for 24 weeks, p<0.0001", "result": "significantly lower"}, {"measurement": "Number of grooming episodes vs controls", "setting": "Sprague-Dewley rats; haloperidol for 24 weeks, p<0.17", "result": "did not differ"}]}
{"smiles": "N[C@@H]1CONC1=O", "note": "[D-cycloserine]", "values": [{"measurement": "Variable delayed-response task (VDR) performance", "setting": "MPTP-treated monkeys [2]", "result": "significantly improved"}, {"measurement": "Effect on Parkinsonian symptoms (SAS)", "setting": "schizophrenia patients [3]; D-cycloserine 50 mg/d vs placebo, t=1.77, one tailed", "result": "nearly significant improvement"}, {"measurement": "SAS, week 6 within treatment phase", "setting": "schizophrenia patients [3]; [7]", "result": "3.6 ± 2.1"}, {"measurement": "SAS, Ä symptoms", "setting": "schizophrenia patients [3]; [8]", "result": "−0.7 ± 1.7"}, {"measurement": "SAS, week 0 within treatment phase", "setting": "schizophrenia patients [3]; [9]", "result": "4.3 ± 2.4"}, {"measurement": "PANSS General Psychopathaology, week 6 within treatment phase", "setting": "schizophrenia patients [4]; [10]", "result": "53.8 ± 8.2"}, {"measurement": "PANSS Negative symptoms, week 6 within treatment phase", "setting": "schizophrenia patients [4]; [10]", "result": "31.4 ± 6.5"}, {"measurement": "PANSS Positive symptoms, week 6 within treatment phase", "setting": "schizophrenia patients [4]; [10]", "result": "24.6 ± 4.1"}, {"measurement": "PANSS Total Symptoms, week 6 within treatment phase", "setting": "schizophrenia patients [4]; [10]", "result": "109.7 ± 15.8"}, {"measurement": "PANSS General Psychopathaology, Ä symptoms", "setting": "schizophrenia patients [4]; [11]", "result": "−4.9 ± 6.2"}, {"measurement": "PANSS Negative symptoms, Ä symptoms", "setting": "schizophrenia patients [4]; [11]", "result": "−3.2 ± 2.5"}, {"measurement": "PANSS Positive symptoms, Ä symptoms", "setting": "schizophrenia patients [4]; [11]", "result": "−2.1 ± 2.6"}, {"measurement": "PANSS Total Symptoms, Ä symptoms", "setting": "schizophrenia patients [4]; [11]", "result": "−10.2 ± 8.9"}, {"measurement": "PANSS General Psychopathaology, week 0 within treatment phase", "setting": "schizophrenia patients [4]; [12]", "result": "58.7 ± 8.4"}, {"measurement": "PANSS Negative symptoms, week 0 within treatment phase", "setting": "schizophrenia patients [4]; [12]", "result": "34.6 ± 6.2"}, {"measurement": "PANSS Positive symptoms, week 0 within treatment phase", "setting": "schizophrenia patients [4]; [12]", "result": "26.7 ± 4.5"}, {"measurement": "PANSS Total Symptoms, week 0 within treatment phase", "setting": "schizophrenia patients [4]; [12]", "result": "120 ± 16.7"}, {"measurement": "Effect on dyskinetic symptoms (AIMS)", "setting": "schizophrenia patients [5]; D-cycloserine 50 mg/d vs placebo, t=2.21, p<0.025, one tailed", "result": "significant reduction"}, {"measurement": "AIMS, week 6 within treatment phase", "setting": "schizophrenia patients [5]; [7]", "result": "3.9 ± 3"}, {"measurement": "AIMS, Ä symptoms", "setting": "schizophrenia patients [5]; [8]", "result": "−0.8 ± 1.3"}, {"measurement": "AIMS, week 0 within treatment phase", "setting": "schizophrenia patients [5]; [9]", "result": "4.7 ± 3.1"}, {"measurement": "Bradykinesia, tremor or other core Parkinsonian symptoms", "setting": "MPTP-treated monkeys [6]", "result": "did not show improvement"}]}
{"smiles": "C[C@@H](N)C(=O)O", "note": "[D-alanine]", "values": [{"measurement": "Changes in SAS or AIMS scores", "setting": "patients", "result": "no significant changes"}]}
{"smiles": "CNCC(=O)O", "note": "[N-methylglycine]", "values": [{"measurement": "Changes in SAS or AIMS scores", "setting": "patients", "result": "no significant changes"}]}
